Data on 25 compounds can be found in US10730874B2 (Shire Human Genetic Therapies, Inc., priority 2018, dated 2020).

What is called EC50 is the midpoint of the concentration-response curve.

Molecules are shown by their SMILES. A value given as a limit tells only on which side of the number the result lay.

The first assay deals with human activated kallikrein enzyme (plasma kallikrein) (Homo sapiens (Human), UniProt P03952). The assay is described as follows: Inhibition of human activated plasma kallikrein, fluorogenic peptide substrate assay, 500 pM enzyme format. The format is biochemical.
Chain of human activated kallikrein enzyme (plasma kallikrein) (P03952 391-638): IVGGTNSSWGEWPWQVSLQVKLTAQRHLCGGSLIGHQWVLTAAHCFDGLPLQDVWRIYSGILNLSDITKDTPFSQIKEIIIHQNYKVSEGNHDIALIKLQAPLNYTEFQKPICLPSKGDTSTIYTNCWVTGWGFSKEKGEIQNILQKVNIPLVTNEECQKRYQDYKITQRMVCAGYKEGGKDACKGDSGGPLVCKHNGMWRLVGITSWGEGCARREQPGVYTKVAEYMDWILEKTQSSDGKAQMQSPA
Chain of human activated kallikrein enzyme (plasma kallikrein) (P03952 20-390 partner): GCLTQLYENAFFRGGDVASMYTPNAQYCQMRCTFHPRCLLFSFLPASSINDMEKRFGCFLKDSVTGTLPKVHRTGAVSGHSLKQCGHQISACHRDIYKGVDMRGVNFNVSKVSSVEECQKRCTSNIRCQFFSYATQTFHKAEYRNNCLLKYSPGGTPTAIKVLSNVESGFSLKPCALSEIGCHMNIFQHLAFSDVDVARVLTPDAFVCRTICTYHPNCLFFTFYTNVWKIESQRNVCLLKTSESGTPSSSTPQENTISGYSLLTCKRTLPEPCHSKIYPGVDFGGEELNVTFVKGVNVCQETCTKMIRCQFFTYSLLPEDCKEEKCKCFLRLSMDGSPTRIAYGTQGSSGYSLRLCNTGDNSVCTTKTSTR
Details: not given
As for the experimental part: Example compounds were evaluated for inhibition of the human activated kallikrein enzyme in two formats of an assay employing a fluorogenic peptide substrate. In one assay format, the concentrations of reagents were as follows: 20 mM Tris pH 7.5, 1 mM EDTA, 150 mM sodium chloride, 0.1% PEG-400, 0.1% Triton X-100, 500 pM activated kallikrein enzyme, 300 uM Pro-Phe-Arg-7-amido-4-methylcoumarin substrate. Prior to reaction initiation with substrate, enzyme and inhibitors were preincubated for 30 min at RT. After initiation with substrate, reactions were incubated for 10 min at RT and fluorescence emission at 460 nm from 380 nm excitation measured with a microplate reader. In another assay format, the concentrations of reagents were as follows: 20 mM Tris pH 7.5, 1 mM EDTA, 150 mM sodium chloride, 0.1% PEG-400, 0.1% Triton X-100, 5 pM activated kallikrein enzyme, 300 uM Pro-Phe-Arg-7-amido-4-methylcoumarin substrate. Prior to reaction initiation with substrate, enzyme and inhibitors were preincubated for 30 min at RT. After initiation with substrate, reactions were incubated for 18 h at RT and fluorescence emission at 460 nm from 380 nm excitation measured with a microplate reader.
`O=C(NCc1ncn2ccc(Cl)cc12)c1cn(Cc2cn3cc(C4CC4)ccc3n2)c2cccnc12` [Example I-29, N-((7-chloroimidazo[1,5-a]pyridin-1-yl)methyl)-1-((6-cyclopropylimidazo[1,2-a]pyridin-2-yl)methyl)-1H-pyrrolo[3,2-b]pyridine-3-carboxamide] yielded a concentration for a half-maximal effect (EC50) of 10 to 100 nM.

Staying with this assay, now noted: 500 pM activated kallikrein enzyme, 300 uM Pro-Phe-Arg-7-amido-4-methylcoumarin substrate, 30 min preincubation, 10 min at RT; read-out: Primary Dose Response Assay: Average EC50.
In the case of `O=C(NCc1ncn2ccc(Cl)c(F)c12)c1cn(Cc2cn3cc(C4CC4)cc(N4CC5(COC5)C4)c3n2)nn1` [Example I-250, N-((7-chloro-8-fluoroimidazo[1,5-a]pyridin-1-yl)methyl)-1-((6-cyclopropyl-8-(2-oxa-6-azaspiro[3.3]heptan-6-yl)imidazo[1,2-a]pyridin-2-yl)methyl)-1H-1,2,3-triazole-4-carboxamide], the EC50 is less than 1 nM.

Turning to `O=C(NCc1ncn2ccc(Cl)c(F)c12)c1cnn(Cc2ccc3nccnc3c2)c1` [Example I-293, N-((7-chloro-8-fluoroimidazo[1,5-a]pyridin-1-yl)methyl)-1-(quinoxalin-6-ylmethyl)-1H-pyrazole-4-carboxamide], the half-maximal effective concentration (EC50) was 10 to 100 nM.

Turning to `CCOC(=O)Cc1cc(C2CC2)cn2cc(Cn3cc(C(=O)NCc4ncn5ccc(Cl)c(F)c45)nn3)nc12` [Example I-157a, ethyl 2-(2-((4-(((7-chloro-8-fluoroimidazo[1,5-a]pyridin-1-yl)methyl)carbamoyl)-1H-1,2,3-triazol-1-yl)methyl)-6-cyclopropylimidazo[1,2-a]pyridin-8-yl)acetate], the half-maximal effective concentration (EC50) is less than 1 nM.

With `COC(=O)C1CN(c2cc(C3CC3)nn3cc(Cn4cc(C(=O)NCc5ncn6ccc(Cl)c(F)c56)nn4)nc23)C1` [Example I-265a, methyl 1-(2-((4-(((7-chloro-8-fluoroimidazo[1,5-a]pyridin-1-yl)methyl)carbamoyl)-1H-1,2,3-triazol-1-yl)methyl)-6-cyclopropylimidazo[1,2-b]pyridazin-8-yl)azetidine-3-carboxylate], the EC50 is less than 1 nM.

Turning to `O=C(NCc1ncn2ccc(Cl)c(F)c12)c1cn(Cc2cn3cc(C4CC4)cc(-c4cncs4)c3n2)nn1` [Example I-263, N-((7-chloro-8-fluoroimidazo[1,5-a]pyridin-1-yl)methyl)-1-((6-cyclopropyl-8-(thiazol-5-yl)imidazo[1,2-a]pyridin-2-yl)methyl)-1H-1,2,3-triazole-4-carboxamide], the EC50 was less than 1 nM.

For the compound `O=C(NCc1ncn2ccc(Cl)c(F)c12)c1cn(Cc2cn3cc(Cl)c(Cl)cc3n2)nn1` [Example I-188, N-((7-chloro-8-fluoroimidazo[1,5-a]pyridin-1-yl)methyl)-1-((6,7-dichloroimidazo[1,2-a]pyridin-2-yl)methyl)-1H-1,2,3-triazole-4-carboxamide], the EC50 is 1 to 10 nM.

`Cc1cc2nc(Cn3cc(C(=O)NCc4ncn5ccc(Cl)cc45)cn3)cn2cc1C1CC1` [Example I-16, N-((7-chloroimidazo[1,5-a]pyridin-1-yl)methyl)-1-((6-cyclopropyl-7-methylimidazo[1,2-a]pyridin-2-yl)methyl)-1H-pyrazole-4-carboxamide]: the concentration for a half-maximal effect (EC50) lay within 1 to 10 nM.

On to `O=C(NCc1ncn2ccc(Cl)c(F)c12)c1cn(Cc2nc3cc(C4CC4)ccc3[nH]2)nn1` [Example I-236, N-((7-chloro-8-fluoroimidazo[1,5-a]pyridin-1-yl)methyl)-1-((5-cyclopropyl-1H-benzo[d]imidazol-2-yl)methyl)-1H-1,2,3-triazole-4-carboxamide], for which the EC50 was in the range of 10 to 100 nM.

As to `O=C(NCc1ncn2ccc(Cl)c(F)c12)c1cn(Cc2[nH]c3ccc(C4CC4)cc3c2C(F)(F)F)nn1` [Example I-211, N-((7-chloro-8-fluoroimidazo[1,5-a]pyridin-1-yl)methyl)-1-((5-cyclopropyl-3-(trifluoromethyl)-1H-indol-2-yl)methyl)-1H-1,2,3-triazole-4-carboxamide], the EC50 fell in the range of 10 to 100 nM.

Consider `O=C(NCc1ncn2ccc(Cl)cc12)c1cnn(Cc2cn3c(CO)cccc3n2)c1` [Example I-62, N-((7-chloroimidazo[1,5-a]pyridin-1-yl)methyl)-1-((5-(hydroxymethyl)imidazo[1,2-a]pyridin-2-yl)methyl)-1H-pyrazole-4-carboxamide], for which the EC50 is 100 to 2000 nM.

For `C#Cc1ccn2cnc(CNC(=O)c3cnn(Cc4cn5cc(C6CC6)ccc5n4)c3)c2c1` [Example I-66, 1-((6-cyclopropylimidazo[1,2-a]pyridin-2-yl)methyl)-N-((7-ethynylimidazo[1,5-a]pyridin-1-yl)methyl)-1H-pyrazole-4-carboxamide], the concentration giving a half-maximal response (EC50) was less than 1 nM.

With `CCOC(=O)c1nnc(Cc2cc(C3CC3)cn3cc(Cn4cc(C(=O)NCc5ncn6ccc(Cl)c(F)c56)nn4)nc23)o1` [Example I-210a, ethyl 5-((2-((4-(((7-chloro-8-fluoroimidazo[1,5-a]pyridin-1-yl)methyl)carbamoyl)-1H-1,2,3-triazol-1-yl)methyl)-6-cyclopropylimidazo[1,2-a]pyridin-8-yl)methyl)-1,3,4-oxadiazole-2-carboxylate], the EC50 was less than 1 nM.

Take `N#CNC(=NCc1ncn2ccc(Cl)cc12)c1cnn(Cc2cn3cc(C4CC4)ccc3n2)c1` [Example I-123, N′-((7-chloroimidazo[1,5-a]pyridin-1-yl)methyl)-N-cyano-1-((6-cyclopropylimidazo[1,2-a]pyridin-2-yl)methyl)-1H-pyrazole-4-carboximidamide]: the 50% effective concentration (EC50) was in the range of 1 to 10 nM.

On to `CCn1ncn(-c2cc(C3CC3)cn3cc(Cn4cc(C(=O)NCc5ncn6ccc(Cl)c(F)c56)nn4)nc23)c(=O)c1=O` [Example I-242, N-((7-chloro-8-fluoroimidazo[1,5-a]pyridin-1-yl)methyl)-1-((6-cyclopropyl-8-(1-ethyl-5,6-dioxo-5,6-dihydro-1,2,4-triazin-4(1H)-yl)imidazo[1,2-a]pyridin-2-yl)methyl)-1H-1,2,3-triazole-4-carboxamide], for which the EC50 was less than 1 nM.

For `O=C(NCc1ncn2ccc(Cl)c(F)c12)c1cnn(Cc2nc3ccccn3n2)c1` [Example I-282, 1-([1,2,4]triazolo[1,5-a]pyridin-2-ylmethyl)-N-((7-chloro-8-fluoroimidazo[1,5-a]pyridin-1-yl)methyl)-1H-pyrazole-4-carboxamide], the 50% effective concentration (EC50) lay in the range of 100 to 2000 nM.

`CC(C)(C#N)Cc1cc(C2CC2)cn2cc(Cn3cc(C(=O)NCc4ncn5ccc(Cl)c(F)c45)cn3)nc12` [Example I-237, N-((7-chloro-8-fluoroimidazo[1,5-a]pyridin-1-yl)methyl)-1-((8-(2-cyano-2-methylpropyl)-6-cyclopropylimidazo[1,2-a]pyridin-2-yl)methyl)-1H-pyrazole-4-carboxamide]: the EC50 was less than 1 nM.

As to `O=C(O)Cc1cc(C2CC2)cn2cc(Cn3cc(C(=O)NCc4ncn5ccc(Br)c(F)c45)cn3)nc12` [Example I-106, 2-(2-((4-(((7-bromo-8-fluoroimidazo[1,5-a]pyridin-1-yl)methyl)carbamoyl)-1H-pyrazol-1-yl)methyl)-6-cyclopropylimidazo[1,2-a]pyridin-8-yl)acetic acid], the 50% effective concentration (EC50) was less than 1 nM.

For the compound `O=C(NCc1ncn2ccc(Cl)c(F)c12)c1cn(Cc2cn3cc(C4CC4)cc(C(=O)O)c3n2)nn1` [Example I-166b, 2-((4-(((7-chloro-8-fluoroimidazo[1,5-a]pyridin-1-yl)methyl)carbamoyl)-1H-1,2,3-triazol-1-yl)methyl)-6-cyclopropylimidazo[1,2-a]pyridine-8-carboxylic acid], the EC50 is less than 1 nM.

On to `O=C(NCc1ncn2ccc(Cl)cc12)c1cn(Cc2cn3cc(C4CC4)ccc3n2)nn1` [Example I-80, N-((7-chloroimidazo[1,5-a]pyridin-1-yl)methyl)-1-((6-cyclopropylimidazo[1,2-a]pyridin-2-yl)methyl)-1H-1,2,3-triazole-4-carboxamide], for which the concentration for a half-maximal effect (EC50) is less than 1 nM.

Consider `O=C(NCc1ncn2ccc(Cl)c(F)c12)c1cn(Cc2cn3ncccc3n2)cn1` [Example I-291, N-((7-chloro-8-fluoroimidazo[1,5-a]pyridin-1-yl)methyl)-1-(imidazo[1,2-b]pyridazin-2-ylmethyl)-1H-imidazole-4-carboxamide], for which the EC50 lay in the range of 10 to 100 nM.

For the compound `O=C(NCc1ncn2ccc(Cl)cc12)c1cnn(Cc2cn3cc(C4CC4)ccc3n2)c1` [Example I-2, N-((7-chloroimidazo[1,5-a]pyridin-1-yl)methyl)-1-((6-cyclopropylimidazo[1,2-a]pyridin-2-yl)methyl)-1H-pyrazole-4-carboxamide], the half-maximal effective concentration (EC50) was less than 1 nM.

As to `CC(C)(O)CCc1cc(C2CC2)cn2cc(Cn3cc(C(=O)NCc4ncn5ccc(Cl)cc45)cn3)nc12` [Example I-119, N-((7-chloroimidazo[1,5-a]pyridin-1-yl)methyl)-1-((6-cyclopropyl-8-(3-hydroxy-3-methylbutyl)imidazo[1,2-a]pyridin-2-yl)methyl)-1H-pyrazole-4-carboxamide], the EC50 was less than 1 nM.

In the case of `O=C(NCc1ncn2ccc(I)cc12)c1cnn(Cc2cn3cc(C4CC4)ccc3n2)c1` [Example I-45, 1-((6-cyclopropylimidazo[1,2-a]pyridin-2-yl)methyl)-N-((7-iodoimidazo[1,5-a]pyridin-1-yl)methyl)-1H-pyrazole-4-carboxamide], the concentration giving a half-maximal response (EC50) was in the range of 1 to 10 nM.

Regarding `O=C(NCc1ncn2ccc(Cl)c(F)c12)c1cn(Cc2cc3ccc(C4CC4)cn3c2)nn1` [Example I-256, N-((7-chloro-8-fluoroimidazo[1,5-a]pyridin-1-yl)methyl)-1-((6-cyclopropylindolizin-2-yl)methyl)-1H-1,2,3-triazole-4-carboxamide], the half-maximal effective concentration (EC50) was in the range of 1 to 10 nM.
